# Measurements published in patent US20160194299A1 (priority 2013, published 2016).
# Tested on: Mtb
# Assay: microbe, parasite or virus in culture
# Format: cell-based, Mycobacterium tuberculosis
# Details: Mycobacterium tuberculosis, read-out: MIC (I)
row,Structure (SMILES),MIC [µg/mL]
1,CCOC(=O)NC(=O)c1cc(C)sc1NC(=O)c1nc2ccccc2s1 [Compound 14],< 1
2,CCOC(=O)NC(=O)c1cc(Cl)sc1NC(=O)c1nc2ccccc2s1 [Compound 15],< 1
3,CCCCOC(=O)NC(=O)c1ccsc1NC(=O)c1nc2ccccc2s1 [Compound 19],< 1
4,COC(=O)NC(=O)c1ccsc1NC(=O)c1nc2ccccc2s1 [Compound 21],< 1
5,CCOC(=O)NC(=O)c1ccsc1NC(=O)c1cncc(NC(C)=O)c1 [Compound 22],< 1
6,CC(C)(C)OC(=O)NC(=O)c1ccsc1NC(=O)c1nc2ccccc2s1 [Compound 23],< 1
7,CCOC(=O)NC(=O)c1cnn(C)c1NC(=O)c1nc2ccccc2s1 [Compound 105],> 3
8,CCOC(=O)NC(=O)c1ncsc1NC(=O)c1nc2ccccc2s1 [Compound 106],> 3
9,O=C(Nc1sccc1C(=O)N1CCOC1=O)c1nc2ccccc2s1 [Compound 107],> 3
10,CCOS(=O)(=O)NC(=O)c1ccsc1NC(=O)c1nc2ccccc2s1 [Compound 108],> 3
11,CCNC(=O)NC(=O)c1ccsc1NC(=O)c1nc2ccccc2s1 [Compound 109],> 3
12,Cc1nnc(NC(=O)c2ccsc2NC(=O)c2nc3ccccc3s2)s1 [Compound 110],> 3
13,CCOC(=O)NC(=O)c1ccsc1NC(=O)c1cc(NC(C)=O)ccn1 [Compound 111],> 3

# Same assay, conditions: Mycobacterium tuberculosis, read-out: MIC, microplate alamar blue assay (MABA; I)
row,Structure (SMILES),MIC [µg/mL]
1,CCOC(=O)NC(=O)c1cc(C)sc1NC(=O)c1nc2cnccc2s1 [Compound 443],< 1
2,COC(=O)c1cccnc1NC(=O)c1nc2ccccc2s1 [Compound 444],1 to 3
3,CCOC(=O)NC(=O)c1cc(Cl)sc1NC(=O)c1nc2cnccc2s1 [Compound 445],< 1
4,CCOC(=O)NC(=O)c1cc(C)sc1NC(=O)c1nc2ncccc2s1 [Compound 446],< 1
5,CC(C)OC(=O)NC(=O)c1ccsc1NC(=O)c1cccc2cc(Cl)ccc12 [Compound 447],1 to 3
6,CCOC(=O)NC(=O)c1ccsc1NC(=O)c1ccc2nsnc2c1 [Compound 448],< 1
7,CC(C)OC(=O)NC(=O)c1ccsc1NC(=O)c1ccc2nsnc2c1 [Compound 449],< 1
8,CCOC(=O)NC(=O)c1ccsc1NC(=O)c1ccnc2cc(Cl)ccc12 [Compound 450],> 3
9,CCOC(=O)NC(=O)c1ccsc1NC(=O)c1ccn2cnnc2c1 [Compound 451],< 1
10,CC(C)OC(=O)NC(=O)c1ccsc1NC(=O)c1ccn2cnnc2c1 [Compound 452],< 1
11,O=C(Nc1sccc1C(=O)Nc1ccccn1)c1nc2cnccc2s1 [Compound 454],> 3
12,O=C(Nc1sccc1C(=O)NCC1CCCO1)c1nc2cnccc2s1 (stereo not shown) [Compound 455],> 3
13,O=C(Nc1sccc1C(=O)Nc1ncco1)c1nc2cnccc2s1 [Compound 456],1 to 3
14,CCOC(=O)NC(=O)c1ccsc1NC(=O)c1nc2ncc(C)cc2s1 [Compound 457],< 1
15,CCOC(=O)NC(=O)c1ccsc1NC(=O)c1nc2ccncc2s1 [Compound 458],> 3

# Tested on: not listed separately
# Assay: in vitro
# Details: African green monkey
row,Structure (SMILES),CC50 [µg/mL]
1,CCOC(=O)NC(=O)c1ccsc1NCc1nc2ccccc2s1 [Compound 209],> 50
2,Nc1nnc(-c2ccsc2NC(=O)c2nc3ccccc3s2)o1 [Compound 210],> 50
3,CCOC(=O)NC(=O)c1ccccc1NC(=O)c1nc2ccccc2s1 [Compound 214],> 50
4,CCOC(=O)NC(=O)c1c(NC(=O)c2nc3ccccc3s2)sc(C#N)c1C [Compound 216],> 50
5,CCOC(=O)NC(=O)c1ccsc1NC(=O)c1nc2ccc(C)nc2s1 [Compound 224],> 50
6,CN1CCN(C(=O)c2ccsc2NC(=O)c2nc3ccccc3s2)CC1 [Compound 225],25 to 50
7,O=C(Nc1sccc1C(=O)N1CCNC1=O)c1nc2ccccc2s1 [Compound 226],> 50
8,CC(C)(C)OC(=O)N1CCN(C(=O)c2ccsc2NC(=O)c2nc3ccccc3s2)CC1 [Compound 227],> 50
9,O=C(Nc1sccc1C(=O)N1CCNCC1)c1nc2ccccc2s1 [Compound 228],< 25
